Reference: publication PMC4476799, “Englerin A Agonizes the TRPC4/C5 Cation Channels to Inhibit Tumor Cell Line Proliferation” (PLoS ONE, 2015)
pEC50, pIC50: −log10 of the molar value. Where two headings read alike, the source gives them in different places.

System: cancer cell lines from the cancer cell line encyclopedia (CCLE)
Assay: Cell line profiling (CLiP) proliferation experiment
Format: cell-based
Conditions: Homo sapiens; for pIC50: read-out: Crossing Point; for pEC50: read-out: Inflection Point
Experimental: Compound profiling experiment and data analysis was performed as previously described. Data was imported and plotted using the Tibco Spotfire DXP application. Lines were categorized as sensitive, intermediate and refractory as follows: Amax<-40 & Inflection Point <2 ~ Sensitive, Amax>-20 & Inflection Point >10 ~ Refractory, all else were called Intermediate. Cancer Cell line HG-U133 Plus 2 data was processed and normalized as described. […] Five sets of refractory cell lines were generated from the pool of refractory cell lines trying to match the lineage composition of the set of sensitive cell lines. The limma package was used as previously described to perform the statistical comparison.

[1] = HCC1187, cell line HCC1187, breast
[2] = HCC1954, cell line HCC1954, breast
[3] = HCT-15, cell line HCT-15, large_intestine
[4] = HCT-116, cell line HCT 116, large_intestine
[5] = HEC-1-A, cell line HEC-1-A, endometrium
[6] = HPBALL, cell line HPB-ALL, haematopoietic_and_lymphoid_tissue
[7] = Hs 294T, cell line Hs 294T, skin
[8] = Hs 695T, cell line Hs 695T, skin
[9] = KYSE-150, KYSE-150 (oesophagus)
[10] = L-363, L-363 (haematopoietic_and_lymphoid_tissue)
[11] = LN-18, LN-18 (central_nervous_system)
[12] = LN-229, LN-229 (central_nervous_system)
[13] = LS180, LS 180 (large_intestine)
[14] = LS-411N, LS411N (large_intestine)
[15] = MC116, MC116 (haematopoietic_and_lymphoid_tissue)
[16] = MIA PaCa-2, MIA PaCa-2 (pancreas)

CC(C)[C@@]12C[C@@H](O)[C@@](C)(O1)[C@@H]1CC[C@@H](C)[C@H]1[C@@H]2OC(=O)/C=C/c1ccccc1 [Englerin B]
pIC50 (HCC1143, cell line HCC1143): < 4.52 | pIC50 [1]: 4.86 | pEC50 [1]: 5.09 | pIC50 (HCC1395, cell line HCC1395, breast): < 4.52 | pIC50 (HCC1395, cell line HCC1395): < 4.52 | pIC50 (HCC1419, cell line HCC1419, breast): 4.60 | pIC50 (HCC1428, cell line HCC1428, breast): < 4.52 | pIC50 (HCC1428, cell line HCC1428): < 4.52 | pIC50 (HCC1569, cell line HCC1569, breast): 4.54 | pIC50 (HCC1806, cell line HCC1806, breast): < 4.52 | pIC50 (HCC1806, cell line HCC1806): < 4.52 | pIC50 (HCC1937, cell line HCC1937, breast): 4.54 | pIC50 [2]: 4.86 | pEC50 [2]: 4.95 | pEC50 (HCC1954, cell line HCC1954): 4.95 | pIC50 (HCC2218, cell line HCC2218, breast): < 4.52 | pIC50 (HCC2218, cell line HCC2218): < 4.52 | pIC50 [3]: < 4.52 | pEC50 [3]: 4.98 | pIC50 (HCT-15, cell line HCT-15): < 4.52 | pIC50 [4]: < 4.52 | pEC50 [4]: 5.09 | pIC50 (HCT-116, cell line HCT 116): < 4.52 | pIC50 [5]: < 4.52 | pEC50 [5]: 4.78 | pIC50 (HEC-1-A, cell line HEC-1-A): < 4.52 | pIC50 (HEL 92.1.7, cell line HEL 92.1.7, haematopoietic_and_lymphoid_tissue): 4.62 | pIC50 (HGC-27, cell line HGC-27, stomach): 4.96 | pIC50 (HMCB, cell line HMCB, skin): < 4.52 | pEC50 (HMCB, cell line HMCB, skin): 4.73 | pIC50 (HMCB, cell line HMCB): < 4.52 | pEC50 (HMCB, cell line HMCB): 4.73 | pIC50 (HPBALL, cell line HPB-ALL (haematopoietic_and_lymphoid_tissue, acute_lymphoblastic_T_cell_leukaemia)): 4.76 | pIC50 [6]: 4.76 | pEC50 [6]: 4.93 | pIC50 (HRT-18, cell line HRT-18, large_intestine): 4.70 | pIC50 (HT55, cell line HT55, large_intestine): < 4.52 | pIC50 (HT55, cell line HT55): < 4.52 | pIC50 (HT-29, cell line HT-29, large_intestine): 4.72 | pIC50 (HT-144, cell line HT-144, skin): < 4.52 | pIC50 (HT-144, cell line HT-144): < 4.52 | pIC50 (HT-1080, cell line HT-1080, soft_tissue): < 4.52 | pIC50 (HT-1080, cell line HT-1080): < 4.52 | pIC50 (HT-1376, cell line HT-1376, urinary_tract): < 4.52 | pIC50 (HT-1376, cell line HT-1376): < 4.52 | pIC50 [7]: < 4.52 | pEC50 [7]: 4.65 | pIC50 (Hs 294T, cell line Hs 294T): < 4.52 | pIC50 [8]: < 4.52 | pEC50 [8]: 4.66 | pIC50 (Hs 695T, cell line Hs 695T): < 4.52 | pIC50 (Hs-578T, cell line Hs 578T, breast): < 4.52 | pIC50 (Hs-578T, cell line Hs 578T): < 4.52 | pIC50 (HuH-1, cell line huH-1, liver): < 4.52 | pEC50 (HuH-1, cell line huH-1, liver): 5.12 | pIC50 (HuH-1, huH-1 (liver)): < 4.52 | pIC50 (HuP-T3, cell line HUP-T3, pancreas): < 4.52 | pIC50 (HuP-T3, cell line HUP-T3): < 4.52 | pIC50 (IGR-1, IGR-1 cells): < 4.52 | pIC50 (IGR-1, cell line IGR-1, skin): < 4.52 | pIC50 (IGR-37, cell line IGR-37, skin): 4.61 | pIC50 (IGROV-1, IGROV1 cells): < 4.52 | pIC50 (IGROV-1, cell line IGROV1, ovary): < 4.52 | pIC50 (IMR-32, IMR-32): 4.62 | pEC50 (IMR-32, IMR-32): 4.62 | pIC50 (IMR-32, IMR-32 cells): 4.62 | pEC50 (IMR-32, IMR-32 cells): 4.62 | pIC50 (IPC-298, IPC-298): < 4.52 | pEC50 (IPC-298, IPC-298): 5.98 | pIC50 (IPC-298, cell line IPC-298): < 4.52 | pIC50 (Ishikawa, Ishikawa (Heraklio) 02 ER- cells): < 4.52 | pIC50 (Ishikawa, Ishikawa (Heraklio) 02 ER-): < 4.52 | pIC50 (J82, J82): < 4.52 | pEC50 (J82, J82): 4.70 | pIC50 (JIMT-1, JIMT-1): < 4.52 | pIC50 (JIMT-1, JIMT-1 cells): < 4.52 | pIC50 (JJN-3, JJN-3): < 4.52 | pIC50 (JJN-3, cell line JJN-3): < 4.52 | pIC50 (JVM-2, JVM-2): 4.68 | pEC50 (JVM-2, JVM-2): 4.68 | pIC50 (JVM-2, JVM-2 cells): 4.68 | pEC50 (JVM-2, JVM-2 cells): 4.68 | pIC50 (JVM-3, JVM-3): < 4.52 | pIC50 (JVM-3, cell line JVM-3): < 4.52 | pIC50 (JeKo-1, JeKo-1): 5.09 | pEC50 (JeKo-1, JeKo-1): 5.12 | pEC50 (JeKo-1, JeKo-1 cells): 5.12 | pIC50 (Jurkat): 4.79 | pIC50 (K562, K-562): < 4.52 | pEC50 (K562, K-562): 5.02 | pIC50 (K562, cell line K-562): < 4.52 | pIC50 (KARPAS-299, KARPAS-299): 4.88 | pEC50 (KARPAS-299, KARPAS-299): 4.90 | pIC50 (KARPAS-422, KARPAS-422): 4.94 | pEC50 (KARPAS-422, KARPAS-422): 4.94 | pIC50 (KARPAS-422, KARPAS-422 cells): 4.94 | pEC50 (KARPAS-422, KARPAS-422 cells): 4.94 | pEC50 (KATO III, cell line KATO III): 4.73 | pIC50 (KATO III): 4.71 | pEC50 (KATO III): 4.73 | pIC50 (KCL-22, KCL-22): 4.87 | pEC50 (KCL-22, KCL-22): 4.89 | pIC50 (KCL-22, KCL-22 cells): 4.87 | pEC50 (KCL-22, KCL-22 cells): 4.89 | pIC50 (KLE): < 4.52 | pEC50 (KLE): 4.95 | pIC50 (KM12, KM12): < 4.52 | pIC50 (KM12, KM12 cells): < 4.52 | pIC50 (KMS-11, KMS-11): 4.87 | pEC50 (KMS-11, KMS-11): 4.88 | pEC50 (KMS-11, KMS-11 cells): 4.88 | pIC50 (KMS-12-BM, KMS-12-BM cells): 4.60 | pEC50 (KMS-12-BM, KMS-12-BM cells): 4.60 | pIC50 (KMS-12-BM): 4.60 | pEC50 (KMS-12-BM): 4.60 | pIC50 (KNS-62, KNS-62): < 4.52 | pIC50 (KNS-62, KNS-62 cells): < 4.52 | pIC50 (KU812, KU812): 5.06 | pEC50 (KU812, KU812): 4.88 | pEC50 (KU812, KU812 cells): 4.88 | pIC50 (KYSE-30, KYSE-30 (oesophagus)): < 4.52 | pIC50 (KYSE-70, KYSE-70 (oesophagus)): 4.55 | pIC50 [9]: < 4.52 | pEC50 [9]: 4.92 | pIC50 (KYSE-270, KYSE-270 (oesophagus)): < 4.52 | pIC50 (KYSE-270, cell line KYSE-270): < 4.52 | pIC50 (KYSE-410, KYSE-410 (oesophagus)): 4.66 | pIC50 (KYSE-450, KYSE-450 (oesophagus)): < 4.52 | pIC50 (KYSE-450, KYSE-450 cells): < 4.52 | pIC50 (KYSE-510, KYSE-510 (oesophagus)): < 4.52 | pIC50 (KYSE-520, KYSE-520 (oesophagus)): 4.64 | pIC50 [10]: 4.73 | pEC50 [10]: 4.56 | pIC50 (LAMA-84, LAMA-84 (haematopoietic_and_lymphoid_tissue)): < 4.52 | pIC50 (LAMA-84, LAMA-84 cells): < 4.52 | pIC50 (LCLC-97TM1, LCLC-97TM1 (lung)): < 4.52 | pIC50 (LCLC-97TM1, LCLC-97TM1 cells): < 4.52 | pIC50 (LCLC-103H, LCLC-103H (lung)): < 4.52 | pIC50 (LCLC-103H, LCLC-103H cells): < 4.52 | pIC50 [11]: 4.86 | pEC50 [11]: 4.88 | pEC50 (LN-18, LN-18 cells): 4.88 | pIC50 [12]: < 4.52 | pEC50 [12]: 4.66 | pIC50 (LOX IMVI, LOX IMVI (skin)): < 4.52 | pIC50 (LOX IMVI, LOX IMVI cells): < 4.52 | pIC50 (LP-1, LP-1 cells): 4.73 | pEC50 (LP-1, LP-1 cells): 4.73 | pIC50 [13]: < 4.52 | pEC50 [13]: 5.01 | pIC50 (LS180, LS 180 cells): < 4.52 | pEC50 (LS180, LS 180 cells): 5.01 | pIC50 [14]: 4.79 | pEC50 [14]: 4.79 | pIC50 (LXF-289, LXF-289 (lung)): < 4.52 | pIC50 (LoVo, LoVo (large_intestine)): < 4.52 | pEC50 (LoVo, LoVo (large_intestine)): 4.90 | pIC50 (Lu-65, LU65 (lung)): < 4.52 | pIC50 (Lu-99, LU99 (lung)): 4.57 | pEC50 (Lu-99, LU99 (lung)): 4.89 | pIC50 [15]: 4.85 | pEC50 [15]: 4.85 | pIC50 (MCF7, MCF7 (breast)): 4.86 | pEC50 (MCF7, MCF7 (breast)): 4.97 | pIC50 (MCF7, MCF7 cells): 4.86 | pEC50 (MCF7, MCF7 cells): 4.97 | pIC50 (MDA-MB-175-VII, MDA-MB-175-VII (breast)): < 4.52 | pIC50 (MDA-MB-231, MDA-MB-231 (breast)): < 4.52 | pIC50 (MDA-MB-231, cell line MDA-MB-231 (breast, NS)): < 4.52 | pIC50 (MDA-MB-415, MDA-MB-415 (breast)): < 4.52 | pIC50 (MDA-MB-436, MDA-MB-436 (breast)): < 4.52 | pIC50 (MDA-MB-453, MDA-MB-453 (breast)): 4.74 | pIC50 (MDA-MB-468, MDA-MB-468 (breast)): < 4.52 | pIC50 (MDA-MB-468, MDA-MB-468 cells): < 4.52 | pIC50 (MEC1, MEC-1 (haematopoietic_and_lymphoid_tissue)): 4.65 | pIC50 (MEG-01, MEG-01 (haematopoietic_and_lymphoid_tissue)): 4.54 | pIC50 (MEL-JUSO, MEL-JUSO (skin)): < 4.52 | pIC50 (MEL-JUSO, cell line MEL-JUSO (skin)): < 4.52 | pIC50 (MFE-296, cell line MFE-296 (endometrium)): 4.64 | pIC50 (MG-63, cell line MG-63 (bone)): < 4.52 | pIC50 (MG-63, cell line MG-63): < 4.52 | pIC50 [16]: < 4.52 | pEC50 [16]: 4.95 | pIC50 (MIA PaCa-2, cell line MIA PaCa-2 (pancreas)): < 4.52
